Entries after “also recorded” stand apart in the source; their conditions may differ.
Test: In vivo tolerability (body weight, H&E histopathology of liver and kidney)
Design: species or system mouse
Method: All animal procedures were approved by the Animal Ethics Committee of the Naval Medical University (permit number: EC11-055). Male BALB/c mice (6–8 weeks old, average initial body weight approximately 18–20 g) were purchased from Shanghai SLAC Laboratory Animal Co., Ltd. The inhibitory effect of compound 3g was evaluated using a subcutaneous B16-F10 melanoma xenograft model. Log-phase B16F10 cells were suspended in PBS and subcutaneously injected into mice (200 μL containing 8 × 10^5 cells per mouse) to establish tumors. Mice were randomly divided into control and treatment groups (n = 8). Compound 3g and paclitaxel were dissolved in a vehicle consisting of DMSO:PEG:Tween-80:saline (v/v/v/v, 5:35:10:50) to the desired concentrations. Treatments (paclitaxel, 10 mg/kg; compound 3g, 20 and 50 mg/kg, doses calculated on a body-weight basis) and vehicle were administered once daily via intraperitoneal injection for 14 consecutive days. Body weights were monitored throughout the study to assess acute toxicity. Tumor volumes were measured using calipers and calculated with the formula: a × b^2 × 0.5, where a and b represent the larger and smaller tumor diameters, respectively. On day 14, mice were sacrificed and tumors were excised and weighed. […] Major organs (liver and kidneys) were collected, fixed in 4% paraformaldehyde, processed into paraffin sections, stained with hematoxylin and eosin (H&E), and examined microscopically.
Figure 8 Compound 3g inhibits melanoma tumor growth in vivo. Murine melanoma B16-F10 xenograft tumors were established in mice, which were then administered vehicle, PTX (10 mg/kg per day), compound 3g (20 mg/kg per day), and compound 3g (50 mg/kg per day) for 14 days. The mice were sacrificed, and the tumors were weighed. (A) Images of tumors from mice at 14 days after initiation of treatment. (B) Body weight changes in mice during treatment. (C) Weight of the excised tumors of each group. * p < 0.05, and *** p < 0.001 vs. control group. (D) Tumor volume changes in mice during treatment. […]

[1] = 20 and 50 mg/kg i.p. daily, 14 days

For `COc1cc(-n2ccc3ccc(-c4ccc(C)c(C#N)c4)cc32)cc(OC)c1OC` [3g, 2-methyl-5-(1-(3,4,5-trimethoxyphenyl)-1H-indol-6-yl)benzonitrile], the systemic toxicity (20 mg/kg and 50 mg/kg) was “without evident systemic toxicity”, the body weight change [1] was “did not induce significant body weight loss” and the “histopathology of liver and kidneys (H&E)” value [1] was “no overt toxicity; also recorded: did not reveal obvious morphological abnormalities”.
